Experimental data taken from patent US12077503B2, “Substituted cyclic amides and their use as herbicides” (FMC CORPORATION, priority 2015, dated 2024).

Experiments:
Assay type in all cases: in vivo
[1] = test system: barnyardgrass (Echinochloa crus-galli); experiment: Test A postemergence; settings: Echinochloa crus-galli, post-emergence, 240 h, postemergence, read-out: Barnyardgrass plant response rating; for pest or weed control at 125 g/ha: 125 g ai/ha, visual injury on 0 to 100 scale (0 no effect, 100 complete control), approx. 10 d; for pest or weed control at 500 g/ha: 500 g ai/ha, 0 to 100 scale, 0 is no effect, 100 is complete control
Procedure, shortened: (§1)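 Seeds sprayed preemergence with a directed soil spray, or plants at 2 to 10 cm height and one- to two-leaf stage sprayed postemergence, with test chemicals in a non-phytotoxic solvent mixture containing surfactant, in loam soil–sand blend. Injury rated visually against untreated controls after about 10 d in greenhouse, 0 (no effect) to 100 (complete control).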

[2] = test system: giant foxtail (Setaria faberii); experiment: Test A postemergence; settings: Setaria faberi, post-emergence, 240 h, postemergence, read-out: Foxtail, Giant plant response rating; for pest or weed control at 125 g/ha: 125 g ai/ha, visual injury on 0 to 100 scale (0 no effect, 100 complete control), approx. 10 d; for pest or weed control at 500 g/ha: 500 g ai/ha, 0 to 100 scale, 0 is no effect, 100 is complete control
Procedure, shortened: as §1

[3] = test system: pigweed (Amaranthus retroflexus); experiment: Test A postemergence; settings: Amaranthus retroflexus, post-emergence, 240 h, postemergence, read-out: Pigweed plant response rating; for pest or weed control at 125 g/ha: 125 g ai/ha, visual injury on 0 to 100 scale (0 no effect, 100 complete control), approx. 10 d; for pest or weed control at 500 g/ha: 500 g ai/ha, 0 to 100 scale, 0 is no effect, 100 is complete control
Procedure, shortened: as §1

Kochia (Kochia scoparia) [4] = experiment: Test A postemergence; settings: Bassia scoparia, post-emergence, 240 h, postemergence, read-out: Kochia plant response rating; for pest or weed control at 125 g/ha: 125 g ai/ha, visual injury on 0 to 100 scale (0 no effect, 100 complete control), approx. 10 d; for pest or weed control at 500 g/ha: 500 g ai/ha, 0 to 100 scale, 0 is no effect, 100 is complete control
Procedure, shortened: as §1

[5] = test system: wheat (Triticum aestivum); experiment: Test A postemergence; settings: Triticum aestivum, post-emergence, 240 h, postemergence, read-out: Wheat plant response rating; for plant injury at 125 g/ha: 125 g ai/ha, visual injury on 0 to 100 scale (0 no effect, 100 complete control), approx. 10 d; for plant injury at 500 g/ha: 500 g ai/ha, 0 to 100 scale, 0 is no effect, 100 is complete control
Procedure, shortened: as §1

corn (Zea mays) = experiment: Test A postemergence; settings: Zea mays, post-emergence, 240 h, postemergence, read-out: Corn plant response rating; for plant injury at 125 g/ha: 125 g ai/ha, visual injury on 0 to 100 scale (0 no effect, 100 complete control), approx. 10 d; for plant injury at 500 g/ha: 500 g ai/ha, 0 to 100 scale, 0 is no effect, 100 is complete control
Procedure, shortened: as §1

[6] = test system: blackgrass (Alopecurus myosuroides); experiment: Test A postemergence; settings: Alopecurus myosuroides, post-emergence, 240 h, postemergence, read-out: Blackgrass plant response rating; for pest or weed control at 125 g/ha: 125 g ai/ha, visual injury on 0 to 100 scale (0 no effect, 100 complete control), approx. 10 d; for pest or weed control at 500 g/ha: 500 g ai/ha, 0 to 100 scale, 0 is no effect, 100 is complete control
Procedure, shortened: as §1

[7] = test system: ryegrass, Italian (Italian ryegrass, Lolium multiflorum); experiment: Test A postemergence; settings: Lolium multiflorum, post-emergence, 240 h, postemergence, read-out: Ryegrass, Italian plant response rating; for pest or weed control at 125 g/ha: 125 g ai/ha, visual injury on 0 to 100 scale (0 no effect, 100 complete control), approx. 10 d; for pest or weed control at 500 g/ha: 500 g ai/ha, 0 to 100 scale, 0 is no effect, 100 is complete control
Procedure, shortened: as §1

[8] = test system: Galium (catchweed bedstraw, Galium aparine); experiment: Test A postemergence; settings: Galium, post-emergence, 240 h, postemergence, read-out: Galium plant response rating; for pest or weed control at 125 g/ha: 125 g ai/ha, visual injury on 0 to 100 scale (0 no effect, 100 complete control), approx. 10 d; for pest or weed control at 500 g/ha: 500 g ai/ha, 0 to 100 scale, 0 is no effect, 100 is complete control
Procedure, shortened: as §1

[9] = test system: barnyardgrass (Echinochloa crus-galli); experiment: Test A preemergence; settings: Echinochloa crus-galli, pre-emergence, 240 h, preemergence, read-out: Barnyardgrass plant response rating; for pest or weed control at 125 g/ha: 125 g ai/ha, 0 to 100 scale where 0 is no effect and 100 is complete control, approx. 10 d; for pest or weed control at 500 g/ha: 500 g ai/ha, visual injury rating about 10 d after treatment, 0 to 100 scale (0 no effect, 100 complete control)
Procedure, shortened: as §1

[10] = test system: giant foxtail (Setaria faberii); experiment: Test A preemergence; settings: Setaria faberi, pre-emergence, 240 h, preemergence, 0 to 100 scale where 0 is no effect and 100 is complete control, read-out: Foxtail, Giant plant response rating; for pest or weed control at 125 g/ha: 125 g ai/ha, approx. 10 d; for pest or weed control at 500 g/ha: 500 g ai/ha
Procedure, shortened: as §1

[11] = test system: pigweed (Amaranthus retroflexus); experiment: Test A preemergence; settings: Amaranthus retroflexus, pre-emergence, 240 h, preemergence, 0 to 100 scale where 0 is no effect and 100 is complete control, read-out: Pigweed plant response rating; for pest or weed control at 125 g/ha: 125 g ai/ha, approx. 10 d; for pest or weed control at 500 g/ha: 500 g ai/ha
[12] = test system: ragweed (common ragweed, Ambrosia elatior); experiment: Test A preemergence; settings: Ambrosia artemisiifolia, pre-emergence, 240 h, preemergence, 0 to 100 scale where 0 is no effect and 100 is complete control, read-out: Ragweed plant response rating; for pest or weed control at 125 g/ha: 125 g ai/ha, approx. 10 d; for pest or weed control at 500 g/ha: 500 g ai/ha
Procedure, shortened: as §1

Kochia (Kochia scoparia) [13] = experiment: Test A preemergence; settings: Bassia scoparia, pre-emergence, 240 h, preemergence, 0 to 100 scale where 0 is no effect and 100 is complete control, read-out: Kochia plant response rating; for pest or weed control at 125 g/ha: 125 g ai/ha, approx. 10 d; for pest or weed control at 500 g/ha: 500 g ai/ha
Procedure, shortened: as §1

[14] = test system: ryegrass, Italian (Italian ryegrass, Lolium multiflorum); experiment: Test A preemergence; settings: Lolium multiflorum, pre-emergence, 240 h, preemergence, 0 to 100 scale where 0 is no effect and 100 is complete control, read-out: Ryegrass, Italian plant response rating; for pest or weed control at 125 g/ha: 125 g ai/ha, approx. 10 d; for pest or weed control at 500 g/ha: 500 g ai/ha
Procedure, shortened: as §1

SMILES	pest or weed control at 125 g/ha [1] [%]	pest or weed control at 500 g/ha [1] [%]	pest or weed control at 125 g/ha [2] [%]	pest or weed control at 500 g/ha [2] [%]	pest or weed control at 125 g/ha [3] [%]	pest or weed control at 500 g/ha [3] [%]	pest or weed control at 125 g/ha (Kochia (Kochia scoparia) [4]) [%]	pest or weed control at 500 g/ha (Kochia (Kochia scoparia) [4]) [%]	plant injury at 125 g/ha [5] [%]	plant injury at 500 g/ha [5] [%]	plant injury at 125 g/ha (corn (Zea mays)) [%]	plant injury at 500 g/ha (corn (Zea mays)) [%]	pest or weed control at 125 g/ha [6] [%]	pest or weed control at 500 g/ha [6] [%]	pest or weed control at 125 g/ha [7] [%]	pest or weed control at 500 g/ha [7] [%]	pest or weed control at 125 g/ha [8] [%]	pest or weed control at 500 g/ha [8] [%]	pest or weed control at 125 g/ha [9] [%]	pest or weed control at 500 g/ha [9] [%]	further results
O=C1NC[C@H](c2cscn2)[C@H]1C(=O)Nc1cccc(F)c1F [Compound 1111]	0	0	20	50	0	0	0	0	0	0	0	0	0	0	0	0	0	0	0	0	pest or weed control at 125 g/ha [10]: 0%; pest or weed control at 500 g/ha [10]: 0%; pest or weed control at 125 g/ha [11]: 0%; pest or weed control at 500 g/ha [11]: 0%; pest or weed control at 125 g/ha [12]: 0%; pest or weed control at 500 g/ha [12]: 0%; pest or weed control at 125 g/ha (Kochia (Kochia scoparia) [13]): 0%; pest or weed control at 500 g/ha (Kochia (Kochia scoparia) [13]): 0%; pest or weed control at 125 g/ha [14]: 0%; pest or weed control at 500 g/ha [14]: 20%
O=C1NC[C@H](c2cc(C(F)F)cs2)[C@H]1C(=O)Nc1ccccc1F [Compound 1116]	30	60	0	0	0	0	0	30	0	20	0	0	0	30	0	20	0	40	90	90	pest or weed control at 125 g/ha [10]: 20%; pest or weed control at 500 g/ha [10]: 90%; pest or weed control at 125 g/ha [11]: 0%; pest or weed control at 500 g/ha [11]: 20%; pest or weed control at 125 g/ha [12]: 0%; pest or weed control at 500 g/ha [12]: 20%; pest or weed control at 125 g/ha (Kochia (Kochia scoparia) [13]): 0%; pest or weed control at 500 g/ha (Kochia (Kochia scoparia) [13]): 30%; pest or weed control at 125 g/ha [14]: 0%; pest or weed control at 500 g/ha [14]: 20%
O=C1NC[C@H](c2cc(C(F)F)cs2)[C@H]1C(=O)Nc1cccc(F)c1F [Compound 1117]	80	90	20	70	0	0	20	40	0	70	20	40	0	40	0	40	40	40	90	90	pest or weed control at 125 g/ha [10]: 50%; pest or weed control at 500 g/ha [10]: 90%; pest or weed control at 125 g/ha [11]: 0%; pest or weed control at 500 g/ha [11]: 0%; pest or weed control at 125 g/ha [12]: 20%; pest or weed control at 500 g/ha [12]: 70%; pest or weed control at 125 g/ha (Kochia (Kochia scoparia) [13]): 40%; pest or weed control at 500 g/ha (Kochia (Kochia scoparia) [13]): 70%; pest or weed control at 125 g/ha [14]: 0%; pest or weed control at 500 g/ha [14]: 60%
CN1C[C@H](c2csc(C(F)F)c2)[C@@H](C(=O)Nc2cccc(F)c2F)C1=O [Compound 1122]	90	90	80	90	20	40	60	60	50	70	50	90	40	60	30	60	50	60	90	90	pest or weed control at 125 g/ha [10]: 90%; pest or weed control at 500 g/ha [10]: 90%; pest or weed control at 125 g/ha [11]: 30%; pest or weed control at 500 g/ha [11]: 70%; pest or weed control at 125 g/ha [12]: 70%; pest or weed control at 500 g/ha [12]: 80%; pest or weed control at 125 g/ha (Kochia (Kochia scoparia) [13]): 60%; pest or weed control at 500 g/ha (Kochia (Kochia scoparia) [13]): 70%; pest or weed control at 125 g/ha [14]: 70%; pest or weed control at 500 g/ha [14]: 90%
